Source: patent US7622494B2, “Chemical compounds” (SmithKline Beecham Corporation, priority 2003, dated 2009)
Counter-ions that a name gives are not always drawn.

test system: episomal HPV-16 DNA in W12-20850 cells; assay: W-12 cellular assay (hybrid capture quantification of episomal HPV-16 DNA); assay type: cell-based, HPV16; settings: Human papillomavirus 16, 96 h; W12-20850 cells, four days incubation, episomal HPV-16 DNA by hybrid capture, inhibition relative to untreated control cells; read-out: W-12
Procedure: Compounds of the current invention are believed useful in the treatment and/or prophylaxis of conditions and diseases associated with HPV infection. Activity mediated through HPV was determined using the following W-12 cellular assay.
The W12 cell line used contains HPV16 DNA and was derived from a low-grade cervical dysplasia tissue by Margaret Stanley and subsequently clonally selected by Paul Lambert (University of Wisconsin). One of these clones, W12-20850, contains 1000 copies of episomal HPV16 DNA and was used in the cell-based assay. W12-20850 cells were routinely cultured with a gamma-irradiated (6000 rads) feeder layer of 3T3 cells. Assays, however, were run in the absence of a 3T3 feeder layer. W12-20850 and 3T3 cells were routinely split when they were sub-confluent. W12-20850 were grown in W12 Medium which is constituted of 25% DMEM (Gibco BRL, Cat # 12430-047), 75% F12 Media (Gibco BRL, Cat # 11765-021) and 2.5% FBS. The additives include […] Adenine (Sigma, Cat # A-9795), […] Hydrocortisone (Calbiochem, Cat # 386698); 5.0 mg/ml Bovine Insulin (Sigma, Cat # I-1882), 8.4 ng/ml cholera toxin (Fluka, Cat # 26694) and 10 ng/ml EGF (Invitrogen, Cat # 13247-051). 3T3 cells were grown in DMEM containing 10% FBS. Cell lines were incubated at 37° C., in the presence of 5% CO2.
For the assay, W12-20850 cells were seeded into a 96 well plate-containing compound. Plates were incubated at 37° C. in the presence of 5% CO2, for four days. On the fourth day, cells were lysed and the amount of episomal. HPV-16 DNA was quantified using a non-radioactive hybrid capture technique with HPV-16 specific capture and detection probes. The percent inhibition relative to untreated control cells' was then determined.
The hybrid capture assay is run in a 96 well plate format. Hybridization plates (Nunc Maxisorb Cat # 450320) were coated with a mixture of capture probe and ReactiBind solution for at least 4 hours and then washed with 0.2×SSC, 0.05% Tween20 (SSCT) prior to blocking with […] of 0.2 N NaOH, 1% Igepal, 10 mg/ml hsDNA for 6-8 hours. The hybridization was carried out by mixing 27 μl of lysed cells with 45 μl of denatured detection probe in 6M guanidine isothiocyanate. To prevent evaporation, 50 μl of mineral oil was added to each well. The plate was then heated to 90° C. for 6.5 minutes and the hybridization continued at 42° C. overnight. Assay plates were washed 6 times with SSC/T. Anti-digoxigenin HRP-conjugated Ab (Boehringer Mannheim 1207733, 1:5000) was incubated in the wells for 30 min at room temperature and washed with PBS/0.05% Tween-20. SuperSignal LBA substrate (Pierce Cat # 37070) was added, and chemiluminescence was measured using Wallac 1420 Victor plate reader.

| Compound | IC50 [nM] |
| --- | --- |
| C[C@@H](CCc1ccccc1)NC1CCCc2c1[nH]c1ccccc21 (stereo partly drawn) [Example 24, N-[(1S)-1-Methyl-3-Phenylpropyl]-2,3,4,9-tetrahydro-1H-carbazol-1-aminehydrochloride salt] | 5300 |
| Cc1ccc2[nH]c3c(c2c1)CCCC3NC1Cc2ccccc2C1 (stereo not shown) [Example 41, N-(2.3-Dihydro-1H-inden-2-yl)-6-methyl-2,3,4,9-tetrahydro-1H-carbazol-1-amine hydrochloride-salt] | 400 |
| c1ccc2c3c([nH]c2c1)C(NCc1ccc2c(c1)OCO2)CCC3 (stereo not shown) [Example 25, N-(1.3-Benzodioxol-5-ylmethyl)-2,3,4,9-tetrahydro-1H-carbazol-1-amine hydrochloride salt] | 1500 |
| NC(=O)NC1CCCc2c1[nH]c1ccc(Br)cc21 (stereo not shown) [Example 70, N-(6-Bromo-2,3,4,9-tetrahydro-1H-carbazol-1-yl)urea] | 10300 |
| Brc1ccc2[nH]c3c(c2c1)CCCC3OCc1ccccc1 (stereo not shown) [Example 64, 6-Bromo-1-[(phenylmethyl)oxy]-2,3,4,9-tetrahydro-1H-carbazole] | 95 |
| O=C(NC1CCCc2c1[nH]c1ccc(Br)cc21)C1CCCCC1 (stereo not shown) [Example 68, N-(6-Bromo-2,3,4,9-tetrahydro-1H-carbazol-1-yl)cyclohexanecarboxamide] | 380 |
| Brc1ccc2[nH]c3c(c2c1)CCCCC3NCCc1ccccc1 (stereo not shown) [Example 56, 2-Bromo-N-(2-phenylethyl)-5,6,7,8,9,10-hexahydrocycloheDta[b]indol-6-amine hydrochloride] | 774 |

same assay, conditions: Human papillomavirus 16, W12-20850, 96 h, read-out: W-12

| Compound | IC50 [nM] |
| --- | --- |
| Cc1ccc2[nH]c3c(c2c1)CCCC3N[C@H](C)c1ccccc1 (stereo partly drawn) [Example 42, 6-Methyl-N-[(1R)-1-phenylethyl]-2,3,4,9-tetrahydro-1H-carbazol-1-amine hydrochloride salt] | 540 |
| Cc1ccc2[nH]c3c(c2c1)CCC[C@H]3N[C@H](C)c1ccccc1 [Example 43, hydrochloride salt] | 240 |
| C[C@H](N[C@H]1CCCc2c1[nH]c1ccc(Br)cc21)c1ccccc1 [Example 35, (1S)-6-Bromo-N-[(1S)-1-phenylethyl]-2,3,4,9-tetrahydro-1H-carbazol-1-amine hydrochloride salt] | 3000 |
| C[C@H](N[C@@H]1CCCc2c1[nH]c1ccc(Br)cc21)c1ccccc1 [Example 36, (1R)-6-Bromo-N-[(1S)-1-phenylethyl]-2,3,4,9-tetrahydro-1H-carbazol-1-amine hydrochloride salt] | 20 |
| Brc1cccc2c3c([nH]c12)C(NCc1ccccc1)CCC3 (stereo not shown) [Example 71, N-Benzyl-8-bromo-2,3,4,9-tetrahydro-1H-carbazol-1-amine hydrochloride] | 11400 |
| Brc1ccc2[nH]c3c(c2c1)CCCCC3NCc1ccccc1 (stereo not shown) [Example 54, N-Benzyl-2-bromo-5,6,7,8,9,10-hexahydrocyclohepta[b]indol-6-amine hydrochloride] | 1100 |
| OC[C@H](NC1CCCc2c1[nH]c1ccccc21)c1ccccc1 (stereo partly drawn) [Example 23, (2R)-2-Phenyl-2-(2,3,4,9-tetrahydro-1H-carbazol-1-ylamino)ethanol hydrochloride salt] | 30000 |
| C[C@@H](N[C@H]1CCCc2c1[nH]c1ccc(Br)cc21)c1ccccc1 [Example 32, (1S)-6-Bromo-N-[(1R)-1-Phenylethyl]-2,3,4,9-tetrahydro-1H-carbazol-1-amine hydrochloride salt] | 525 |
| Cc1ccc2[nH]c3c(c2c1)CCC[C@@H]3N[C@@H](C)c1ccccc1 [Example 46, (1S)-6-Methyl-N-[(1S)-1-phenylethyl]-2,3,4,9-tetrahydro-1H-carbazol-1-amine hydrochloride salt] | 8600 |
| C[C@@H](NC1CCCc2c1[nH]c1ccc([N+](=O)[O-])cc21)c1ccccc1 (stereo partly drawn) [Example 49, 6-Nitro-N-[(1R)-1-phenylethyl]-2,3,4,9-tetrahydro-1H-carbazol-1-amine hydrochloride salt] | 83 |
| COCCNC1CCCc2c1[nH]c1ccccc21 (stereo not shown) [Example 22, N-(2-Methoxyethyl)-2,3,4,9-tetrahydro-1H-carbazol-1-amine hydrochloride salt] | 47000 |
| Cc1ccc2[nH]c3c(c2c1)CCCC3NCCc1ccccc1 (stereo not shown) [Example 40, 6-Methyl-N-(2-phenylethyl)-2,3,4,9-tetrahydro-1H-carbazol-1-amine hydrochloride salt] | 2700 |
| Cc1ccc2[nH]c3c(c2c1)CCC[C@H]3N[C@@H](C)c1ccccc1 [Example 47, (1R)-6-Methyl-N-[(1S)-1-phenylethyl]-2,3,4,9-tetrahydro-1H-carbazol-1-amine hydrochloride salt] | 160 |
| Brc1ccc2c3c([nH]c2c1)C(NCc1ccccc1)CCC3 (stereo not shown) [Example 61, N-Benzyl-7-bromo-2,3,4,9-tetrahydro-1H-carbazol-1-amine hydrochloride] | 11000 |
| CCCNC1CCCc2c1[nH]c1ccccc21 (stereo not shown) [Example 21, N-Propyl-2,3,4,9-tetrahydro-1H-carbazol-1-amine hydrochloride salt] | 40000 |
